Columns and labels:
TGF-β1 gene chromatin = assay: DNase I sensitivity assay of TGF-β1 gene in SLE PBMCs; type: cell-based, human
Description: Because nuclease susceptibility is one of the characteristics of active chromatin, a DNase I sensitivity assay was used to examine chromatin conformation of the TGF-β1 gene in SLE PBMCs in the absence or presence of TSA. SLE PBMCs were treated with 1000 ng/ml of TSA for 18 hr, a treatment course shown previously to result in an optimal increase of TGF-β1 mRNA. Equal amounts of purified nuclei isolated from vehicle- or TSA-treated cells were exposed to increasing concentrations of DNase I (FIGS. 7A & 7B). Changes in DNase sensitivity were measured by a DNase I-PCR assay using 0.5 μg of DNA. As shown in the FIG. 7A, the cells treated with only vehicle were relatively resistant to DNase I digestion, even with use of higher concentrations of DNase I (0.25 μg/μl). In contrast, cells treated with TSA were digested in the lower concentration (0.025 μg/μl) of DNase I (FIG. 7B; lanes 3–6). […] There was no change in DNase I sensitivity at the G6PD gene promoter in vehicle- or TSA-treated SLE PBMCs (FIGS. 7A & 7B). Thus, it is likely that Trichostatin A increases DNase I sensitivity in the TGF-β1 gene of SLE PBMCs.

IL-12 p40 protein = IL-12 p40 protein secretion by MRL/lpr splenocytes; type: cell-based, mouse; details: splenocytes stimulated with LPS and IFN-γ 24 hr; stimulated control 45.3±9.1; p=0.003
Description: When splenocytes were activated with LPS (100 μg/ml) and IFN-γ 100U/ml) for 24 hr the mean (±SEM) IL-12 p40 secretion was 45.3±9.1 pg/ml.

cell-surface CD154 = assay: Flow cytometry of cell-surface CD154 and CD3-ε on SLE T cells; type: cell-based, human
Description: In agreement with previous work (M. Koshy, et al., J. Clin. Invest. 98, 826 (1996); A. Desai-Mehta, et al., J. Clin. Invest. 97, 2063 (1996)), we find that an increased proportion of SLE T cells express cell-surface CD154 compared to normal and disease controls. To determine if TSA-dependent down-regulation of CD154 mRNA reduces surface expression of CD154, SLE T cells were treated for 18 hr with TSA and the proportion of CD154^+ cells quantified by flow cytometry (E. Hagiwara, et al., Arthritis Rheum. 39, 379 (1996)). […] T cells were stained with saturating concentrations of monoclonal FITC-anti-CD3 and PE anti-CD154 antibodies (Caltag Labs, Burlingame, Calif.) for 30 min at 4° C., and the proportion of cells expressing CD3-ε and CD154 was quantified. In sum, these experiments reveal that TSA down-regulates both CD154 mRNA and protein expression, but not GAPDH mRNA or CD3-ε expression, in SLE T cells.

IFN-γ protein = IFN-γ protein production by SLE T cells (ELISA); type: cell-based, human; details: SLE T cells activated with PMA+IO 24 hr in presence of TSA; P=0.011
Description: To determine whether TSA could down-regulate IL-10, a dose-response analysis was performed. […] However, when SLE T cells were cultured in the presence of TSA for 18 hr, no detectable IL-10 transcripts were identified (FIG. 2C, lanes 3, 6, 9). When IL-10 transcripts from all eight SLE subjects were quantified relative to GAPDH transcripts, TSA inhibited expression of IL-10 mRNA by 71% (FIG. 2D; P=0.029). […] IL-10 and IFN-γ protein production were quantified by ELISA (R & D Systems, Minneapolis, Minn.). […] Thus, like CD154, TSA was able to block expression of IL-10 transcript, abolishing IL-10 production by SLE T cells.
When T cells were activated with PMA+IO for 24 hr, IFN-γ production increased about 24-fold. However, activation of T cells in the presence of TSA further enhanced IFN-γ output by >12-fold (P=0.011) (FIG. 3C).

IL-6 protein = IL-6 protein secretion by MRL/lpr splenocytes; type: cell-based, mouse; details: splenocytes with LPS and IFN-γ 72 hr; stimulated control 34.4±7.6 pg/ml; p=0.002
Description: In determining whether TSA or SAHA down-regulate IL-6 mRNA content, splenocytes from 24-wk MRL/lpr mice were treated with increasing concentrations of TSA for 18 hr. […] TSA decreased IL-6 transcript at a concentration of 100 ng/ml and exerted maximal inhibition at 300 ng/ml. To address whether TSA and SAHA down-regulate LPS- and IFN-γ induced IL-6 transcript levels, splenocytes from younger MRL/lpr mice were treated in the absence or presence of TSA or SAHA for 18 hr before LPS and IFN-γ stimulation for 6 or 18 hr. […] Next, the effect of TSA and SAHA on IL-6 protein secretion in stimulated splenocytes was measured (FIG. 10D). When splenocytes were cultured with LPS and IFN-γ for 72 hr, there was a mean (±SEM) 34.4±7.6 pg/ml of IL-6 protein secretion.

[1] = test system: acetylated histones H3 and H4 in the TGF-β1 promoter; assay: Chromatin immunoprecipitation (ChIP) assay, TGF-β1 gene promoter; type: cell-based, human
Text: The effect of HDAC inhibition on the acetylation of H3 or H4 associated with the TGF-β1 gene promoter was examined using the chromatin immunoprecipitation (ChIP) assay in an attempt to determine if HDIs induce accumulation of acetylated histones in chromatin associated with the TGF-β1 promoter in SLE PBMCs but not in healthy normal controls. The study undertaken included immunoprecipitating formaldehyde cross-linked, sonicated chromatin fragments from vehicle- and HDI-treated cells using anti-acetyl H3 and H4 antibodies, respectively. The immunoprecipitated DNA released from the bound protein was analyzed by quantitative PCR. A series of primer sets encompassing the TGF-β1 gene from −1.4 kbp to +0.6 kbp relative to the start site of transcription were created (FIG. 6A). Approximately a 12- and 4-fold enhancement of acetylated histones H3 and H4, respectively, in the TGF-β1 promoter in SLE was observed (FIGS. 6B & 6C).
To determine whether this effect was selective for the TGF-β1 gene in SLE PBMCs, the level of histone acetylation in the glucose-6-phosphate dehydrogenase (G6PD) gene was also examined. As shown in FIGS. 6E & 6F, there was no change in the levels of acetylated histones H3 and H4 at the G6PD gene in SLE PBMCs.

CC(/C=C/C(=O)NO)=C\[C@@H](C)C(=O)c1ccc(N(C)C)cc1 [TSA, Trichostatin A]
increase in DNase I sensitivity, TGF-β1 promoter (TGF-β1 gene chromatin; SLE PBMCs, 1000 ng/ml TSA, 18 hr): three-fold | DNase I sensitivity at the G6PD gene promoter (TGF-β1 gene chromatin; vehicle- or TSA-treated SLE PBMCs): no change | IL-12 p40 secretion (mean±SEM) (IL-12 p40 protein): 1.5 ± 1.4 pg/mL | new population of CD154+ cells induced by PMA+IO (cell-surface CD154; SLE T cells pretreated with TSA 1000 ng/ml 18 hr, PMA+IO 24 hr, P=0.005): completely inhibited | CD3-ε expression (cell-surface CD154; SLE T cells, with or without TSA and PMA+IO): remained stable | reduction of cell-surface CD154+ cells (cell-surface CD154; non-activated SLE T cells, TSA, over 24 hr, vs untreated): did not effect any significant reduction | further enhancement of IFN-γ output (IFN-γ protein): > 12 fold | IL-6 protein secretion (IL-6 protein): no detectable IL-6 protein secretion | acetylated state of G6PD gene ([1]; SLE PBMCs): does not change | enhancement of acetylated histone H3 in the TGF-β1 promoter ([1]; SLE PBMCs, ChIP): ~12 fold | enhancement of acetylated histone H4 in the TGF-β1 promoter ([1]; SLE PBMCs, ChIP): ~4 fold | enhancement of acetylated histones H3 and H4 at the TGF-β1 promoter ([1]; normal PBMCs treated with TSA): essentially no enhancement
